Assays:
Format in all cases: cell-based
Raji cells [1] = test: Release of labeled proteins from dead cells, NanoBiT bioluminescence, Raji; conditions: for Dead/Live at 5,000 cells/well: final labeling probe concentration 2 μM; for Dead, RLUs: dead (digitonin treated) cells; for Live, RLUs: live cells; for Dead/Live: ratio after background subtraction
Description: (§1) Next, the bifunctional labeling probe was thawed at room temperature and mixed. The probe was generally contained in DMSO. The bifunctional probe was added to the cells at a final concentration between about 0.5-10 μM. The cells were then mixed by gently pipetting and incubated for 30 minutes at 37° C. To inactivate unreactive free labeling probe, a 10× volume of pre-warmed (37° C.) cell culture medium containing 10% FBS was added, and the cells incubated for additional 5 minutes. The labeled cells were then spun down, and the labeling media removed. The cells were resuspended in fresh cell culture media at the concentration required for the experiment.
(§2) In some embodiments, one or more components of the NanoBiT® system can be used for measuring cell death of pre-labeled cell population in mixed cell cultures. Here, an exemplary protocol is described for using this assay in 96-well plates in […]: 50 μl of sample+50 μl of Detection Reagent+25 μl of Nano-Glo® Luciferase Assay substrate.
(§3) Labeled cells (1,250-10,000 cells/well) were plated with experimental treatment conditions (e.g., drug, effector cells, etc.) in 50 μl of appropriate medium. Wells without cells were included as negative controls to determine background luminescence in the media. Separate wells were included with pre-labeled cells for determining maximum release of labeled proteins. Detection Reagents were assembled: about 1 ml of Detection Reagent buffer (2×) was combined with about 1.25 μl of Detection Component 1 and 1.25 μl of Detection Component 2. If maximum release determination was needed, the required amount of prepared Detection Reagent (50 μl/per sample) was removed, and digitonin at 0.12 mg/ml concentration added (for example, add 6 μl to 1 ml of Detection Reagent).
(§4) About 50 μl of prepared Detection Reagent was added into all assay wells and negative (media) control wells. Detection Reagent with Digitonin was added into control wells for determining maximum release. The cells were placed into a tissue culture incubator, and the treatment continued up to 24 hours. Nano-Glo® Luciferase Assay Substrate was prepared by diluting (1:50) substrate into assay medium. The assay plate was then removed from the tissue culture incubator and equilibrated to room temperature for about 5 mins. About 25 μL of prepared substrate was added to the assay wells, mixed, and luminescence was read.
(§5) No labeling control was included for toxicity evaluation. After labeling, the cells were resuspended in appropriate medium, counted, and plated into wells of a 96-well plate at two-fold serial dilution starting from 20,000 cells/well. The Detection Reagents with or without digitonin were added as described above, and the plates were placed into a tissue culture incubator. After incubation, Nano-Glo® Luciferase Assay substrate was added to the samples, and luminescence was read. After reading luminescence, an equal volume of CellTiter-Glo was added to the samples to measure changes in viability. […] The linear range of the assay is underlined. Dead/Live is the ratio between luminescence signal of dead and live cells calculated after assay background subtraction (media control).

K562 cells [2] = test: Cell viability after labeling, CellTiter-Glo, K562; conditions: labeled at 2 and 5 μM
Description: (§6) For assay optimization, labeling the cells at different probe concentrations and setting up cell titration curves can be advantageous. To evaluate effect of labeling on cell viability, different viability/toxicity assays can also be used. Here, an example of assay optimization is provided using Raji and K562 cells. […] However, labeling efficiency, toxicity, assay linearity, and assay window differed depending on the cell line and labeling conditions. […] Labeling K562 at 2 μM extended linear range of the assay up to 20,000 cells/well, however assay window decreased from 18-fold to 7-8-fold.
as §5

Raji cells [3] = test: Cell viability after labeling, CellTiter-Glo, Raji
Description: as §6, §5

HCT116 = test: Release of labeled proteins from dead cells, NanoBiT bioluminescence, HCT116; conditions: final labeling probe concentration 10 μM
Description: as §1
(§7) In some embodiments, one or more components of the NanoBiT® system can be used for measuring cell death of pre-labeled cell population in mixed cell cultures. […]
(§8) Labeled cells (1,250-10,000 cells/well) were plated with experimental treatment conditions (e.g., drug, effector cells, etc.) in 50 μl of appropriate medium. Wells without cells were included as negative controls to determine background luminescence in the media. […]
(§9) About 50 μl of prepared Detection Reagent was added into all assay wells and negative (media) control wells. […] About 25 μL of prepared substrate was added to the assay wells, mixed, and luminescence was read.

SKBR3 = test: Release of labeled proteins from dead cells, NanoBiT bioluminescence, SKBR3; conditions: final labeling probe concentration 10 μM
Description: as §1, §7, §8, §9

A431 = test: Release of labeled proteins from dead cells, NanoBiT bioluminescence, A431; conditions: final labeling probe concentration 10 μM
Description: as §1, §7, §8, §9

K562 cells [4] = test: Release of labeled proteins from dead cells, NanoBiT bioluminescence (HaloTag-SmBiT/HaloTag-LgBiT), K562; conditions: for Dead/Live at 5,000 cells/well: final labeling probe concentration 5 μM; for Dead, RLUs: dead (digitonin treated) cells; for Live, RLUs: live cells; for Dead/Live: ratio after background subtraction
Description: as §1, §2, §3, §4, §5

various cell types = test: Labeling of various cell types with bifunctional probe, NanoBiT detection (FIG. 2B)
Description: As shown in FIGS. 2A-2B, a variety of cells were labeled with the bifunctional probes of the present disclosure. FIG. 2A is a representative schematic diagram of a method used to label the various target cells identified in FIG. 2B. […] Robust luminescence was detected from the labeled proteins released after cell death, which were quantified using the NanoBiT® system, while little luminescence was detected in the media and live cells.
In accordance with these experiments, the various cell types tested were collected by centrifugation for 5 mins at 300 g followed by aspiration of the media and resuspension in PBS. The bifunctional probe was then added to the media and allowed to incubate for 30 mins at 37° C. Pre-warmed (37° C.) complete media containing 10% serum was then added to the cells and incubated for 5 mins at 37° C. The labeled cells were then collected by centrifugation for 5 mins at 300 g and excess media was removed, and the labeled cells were then resuspended in the desired media. NanoBiT® detection reagents were then added to the labeled cells and allowed to incubate for 30 mins at 37° C. prior to reading luminescence (RLUs).

O=C(NCCOCCOCCCCCCCl)c1ccc(C(=O)ON2C(=O)CCC2=O)cc1 [Labeling Probe, 2,5-dioxopyrrolidin-1-yl 4-((2-(2-((6-chlorohexyl)oxy)ethoxy)ethyl)carbamoyl)benzoate]
Dead/Live at 5,000 cells/well (Raji cells [1]; at 4 h): 35.4
Dead/Live at 5,000 cells/well (Raji cells [1]; at 24 h): 21.7
assay window (Raji cells [1]; labeling concentration 1 μM): > 5 fold
increase in luminescence signal in live cells from media only control (Raji cells [1]; labeling with 5 μM): > 2 fold
Dead, RLUs (Raji cells [1]; probe 1 μM, 1,250 cells/well): 112,901 RLUs
Live, RLUs (Raji cells [1]; probe 1 μM, 1,250 cells/well): 71,937 RLUs
Dead/Live (Raji cells [1]; probe 1 μM, 1,250 cells/well): 6.0
Dead, RLUs (Raji cells [1]; probe 1 μM, 2,500 cells/well): 164,403 RLUs
Live, RLUs (Raji cells [1]; probe 1 μM, 2,500 cells/well): 78,455 RLUs
Dead/Live (Raji cells [1]; probe 1 μM, 2,500 cells/well): 6.8
Dead, RLUs (Raji cells [1]; probe 1 μM, 5,000 cells/well): 257,879 RLUs
Live, RLUs (Raji cells [1]; probe 1 μM, 5,000 cells/well): 88,466 RLUs
Dead/Live (Raji cells [1]; probe 1 μM, 5,000 cells/well): 7.9
Dead, RLUs (Raji cells [1]; probe 1 μM, 10,000 cells/well): 403,731 RLUs
Live, RLUs (Raji cells [1]; probe 1 μM, 10,000 cells/well): 107,531 RLUs
Dead/Live (Raji cells [1]; probe 1 μM, 10,000 cells/well): 7.8
Dead, RLUs (Raji cells [1]; probe 1 μM, 20,000 cells/well): 731,355 RLUs
Live, RLUs (Raji cells [1]; probe 1 μM, 20,000 cells/well): 134,572 RLUs
Dead/Live (Raji cells [1]; probe 1 μM, 20,000 cells/well): 9.4
Live, RLUs (Raji cells [1]; probe 5 μM, 1,250 cells/well): 210,695 RLUs
Dead/Live (Raji cells [1]; probe 5 μM, 1,250 cells/well): 7.7
Dead, RLUs (Raji cells [1]; probe 5 μM, 2,500 cells/well): 2,179,562 RLUs
Live, RLUs (Raji cells [1]; probe 5 μM, 2,500 cells/well): 317,452 RLUs
Dead/Live (Raji cells [1]; probe 5 μM, 2,500 cells/well): 8.2
Dead, RLUs (Raji cells [1]; probe 5 μM, 5,000 cells/well): 3,826,655 RLUs
Live, RLUs (Raji cells [1]; probe 5 μM, 5,000 cells/well): 508,581 RLUs
Dead/Live (Raji cells [1]; probe 5 μM, 5,000 cells/well): 8.4
Dead, RLUs (Raji cells [1]; probe 5 μM, 10,000 cells/well): 4,916,472 RLUs
Live, RLUs (Raji cells [1]; probe 5 μM, 10,000 cells/well): 672,232 RLUs
Dead/Live (Raji cells [1]; probe 5 μM, 10,000 cells/well): 7.9
Dead, RLUs (Raji cells [1]; probe 5 μM, 20,000 cells/well): 3,314,700 RLUs
Live, RLUs (Raji cells [1]; probe 5 μM, 20,000 cells/well): 645,489 RLUs
Dead/Live (Raji cells [1]; probe 5 μM, 20,000 cells/well): 5.6
cell viability measured with CellTiter-Glo (K562 cells [2]): no decrease in cell viability
effect on cell viability (Raji cells [3]; labeling concentration 1 μM): without significant effect on cell viability
decrease in cell viability as measured by CellTiter-Glo (Raji cells [3]; labeling with 5 μM): more than 40%
Dead/Live at 5,000 cells/well (HCT116; at 4 h): 8.1
Dead/Live at 5,000 cells/well (HCT116; at 24 h): 6.7
Dead/Live at 5,000 cells/well (SKBR3; at 4 h): 10.1
Dead/Live at 5,000 cells/well (SKBR3; at 24 h): 10.9
Dead/Live at 5,000 cells/well (A431; at 4 h): 7.4
Dead/Live at 5,000 cells/well (A431; at 24 h): 6.2
Dead/Live at 5,000 cells/well (K562 cells [4]; at 4 h): 18.3
Dead/Live at 5,000 cells/well (K562 cells [4]; at 24 h): 19.0
assay window (K562 cells [4]; labeling at 2 μM): 7-8 fold
assay window (K562 cells [4]; labeling at 5 μM): 18 fold
Dead, RLUs (K562 cells [4]; probe 2 μM, 1,250 cells/well): 69,663 RLUs
Live, RLUs (K562 cells [4]; probe 2 μM, 1,250 cells/well): 37,113 RLUs
Dead/Live (K562 cells [4]; probe 2 μM, 1,250 cells/well): 5.0
Dead, RLUs (K562 cells [4]; probe 2 μM, 2,500 cells/well): 88,448 RLUs
Live, RLUs (K562 cells [4]; probe 2 μM, 2,500 cells/well): 40,600 RLUs
Dead/Live (K562 cells [4]; probe 2 μM, 2,500 cells/well): 5.2
Dead, RLUs (K562 cells [4]; probe 2 μM, 5,000 cells/well): 114,346 RLUs
Live, RLUs (K562 cells [4]; probe 2 μM, 5,000 cells/well): 42,059 RLUs
Dead/Live (K562 cells [4]; probe 2 μM, 5,000 cells/well): 7.6
Dead, RLUs (K562 cells [4]; probe 2 μM, 10,000 cells/well): 154,018 RLUs
Live, RLUs (K562 cells [4]; probe 2 μM, 10,000 cells/well): 47,861 RLUs
Dead/Live (K562 cells [4]; probe 2 μM, 10,000 cells/well): 7.3
Dead, RLUs (K562 cells [4]; probe 2 μM, 20,000 cells/well): 192,283 RLUs
Live, RLUs (K562 cells [4]; probe 2 μM, 20,000 cells/well): 51,528 RLUs
Dead/Live (K562 cells [4]; probe 2 μM, 20,000 cells/well): 7.9
Dead, RLUs (K562 cells [4]; probe 5 μM, 1,250 cells/well): 236,022 RLUs
Live, RLUs (K562 cells [4]; probe 5 μM, 1,250 cells/well): 43,298 RLUs
Dead/Live (K562 cells [4]; probe 5 μM, 1,250 cells/well): 18.1
Dead, RLUs (K562 cells [4]; probe 5 μM, 2,500 cells/well): 373,598 RLUs
Live, RLUs (K562 cells [4]; probe 5 μM, 2,500 cells/well): 50,284 RLUs
Dead/Live (K562 cells [4]; probe 5 μM, 2,500 cells/well): 18.7
Dead, RLUs (K562 cells [4]; probe 5 μM, 5,000 cells/well): 591,060 RLUs
Live, RLUs (K562 cells [4]; probe 5 μM, 5,000 cells/well): 60,873 RLUs
Dead/Live (K562 cells [4]; probe 5 μM, 5,000 cells/well): 19.4
Dead, RLUs (K562 cells [4]; probe 5 μM, 10,000 cells/well): 620,751 RLUs
Live, RLUs (K562 cells [4]; probe 5 μM, 10,000 cells/well): 76,596 RLUs
Dead/Live (K562 cells [4]; probe 5 μM, 10,000 cells/well): 13.1
Dead, RLUs (K562 cells [4]; probe 5 μM, 20,000 cells/well): 477,185 RLUs
Live, RLUs (K562 cells [4]; probe 5 μM, 20,000 cells/well): 78,093 RLUs
Dead/Live (K562 cells [4]; probe 5 μM, 20,000 cells/well): 9.4
increase in light output in live cells as compared to media control (K562 cells [4]; within the linear range of the assay): less than 2 fold
uptake of probe by cells (various cell types): successfully taken up by every cell tested

From US12061202B2, “Compositions and methods for bioluminescent detection using multifunctional probes” (Promega Corporation, priority 2019, dated 2024)
